tested on: LTD4; experiment: Antagonistic activity on LTD4 in vitro (contraction of isolated ilem in a Magnus tube); details: antagonism of LTD4, guinea pig ilem, 5×10^-9 g/ml LTD4, 37° C.; read-out: IC50 (Table III, comparison of activity by alkylene chain change)
Protocol: Antagonistic activity of the compounds of the present invention on LTD4 were measured by the following method.
A segment of ilem (2.5 cm) was removed from guinea pig 300-400 g and suspended in a Magnus tube containing Tyrodes solution. The tube was maintained at 37° C. and aerated with 95% O2 -5% CO2. After stabilizing from 30 mins, 5×10^-9 g/ml of LTD4 was added to the Magnus tube. Contraction length at the time and contraction lengths when the compounds of the present invention were challenged at some concentrations were measured, and the IC50 value were calculated.

Structure (SMILES) | IC50 [µM]
CCCCCc1ccc(CCC(=O)Nc2cccc3c2OC(c2nn[nH]n2)CO3)cc1 (centres unmarked) | 0.66
CCCCCc1ccc(C(=O)Nc2cccc3c2OC(c2nn[nH]n2)CO3)cc1 (centres unmarked) [drawing 40] | 2.6

Other lines, results leading:

IC50 [µM] | Structure (SMILES)
8.3 | CCCCCc1ccc(CC(=O)Nc2cccc3c2OC(c2nn[nH]n2)CO3)cc1 (centres unmarked)
0.074 | CCCc1ccc(/C=C/C=C/C(=O)Nc2cccc3c2OC(c2nn[nH]n2)CO3)cc1 (centres unmarked)
20 | CCCCCCCCCCCCC/C=C/C(=O)Nc1cccc2c1OC(c1nn[nH]n1)CO2 (centres unmarked)

same assay, conditions: antagonism of LTD4, guinea pig ilem, 5×10^-9 g/ml LTD4, 37° C.; read-out: IC50 (Table IV, comparison of activity by skeleton structure change (1))

IC50 [µM] | Structure (SMILES)
0.37 | CCCCCc1ccc(/C=C/C(=O)Nc2cccc3c2OC(c2nn[nH]n2)CO3)cc1 (centres unmarked)
0.03 | CCCCCc1ccc(/C=C/C(=O)Nc2cccc3c(=O)cc(-c4nn[nH]n4)oc23)cc1
0.69 | CCCCCc1ccc(/C=C/C(=O)Nc2cccc3c2SC(c2nn[nH]n2)CS3)cc1 (centres unmarked)

same assay, conditions: antagonism of LTD4, guinea pig ilem, 5×10^-9 g/ml LTD4, 37° C.; read-out: IC50 (Table V, comparison of activity by skeleton structure change (2))

IC50 [µM] | Structure (SMILES)
0.18 | CCCCCc1ccc(C(=O)Nc2cccc3c(=O)cc(-c4nn[nH]n4)oc23)cc1
1.2 | CCCCCc1ccc(C(=O)Nc2cccc3c2OC(C(=O)O)CO3)cc1 (centres unmarked)
2.6 | CCCCCc1ccc(C(=O)Nc2cccc3c2OC(c2nn[nH]n2)CO3)cc1 (centres unmarked) [drawing 49]

same assay, conditions: antagonism of LTD4, guinea pig ilem, 5×10^-9 g/ml LTD4, 37° C.; read-out: IC50 (Table VI, comparison of activity by skeleton structure change (3))

Structure (SMILES) | IC50 [µM]
O=C(Nc1cccc2ccc(-c3nn[nH]n3)nc12)c1ccc(OCCCCc2ccccc2)cc1 [1 (516)] | 0.0026
C=CCCCC=CCOc1ccc(C(=O)Nc2cccc3c2OC(c2nn[nH]n2)CCO3)cc1 (centres unmarked) [1 (518)] | 0.033
O=C(Nc1cccc2c1OC(c1nn[nH]n1)CC2)c1ccc(OCCCCc2ccccc2)cc1 (centres unmarked) [1 (521)] | 0.0013

Continued, values first:

IC50 [µM] | Structure (SMILES)
0.076 | CCCCCCOc1ccc(C(=O)Nc2cccc3cc(-c4nn[nH]n4)oc23)cc1 [1 (501)]
0.205 | CCCCCCOc1ccc(C(=O)Nc2cccc3c2OC(c2nn[nH]n2)C3)cc1 (centres unmarked) [1 (505)]
0.0046 | O=C(Nc1cccc2ccc(-c3nn[nH]n3)cc12)c1ccc(OCCCCc2ccccc2)cc1 [1 (514)]

target: 5α-reductase; experiment: Inhibitory activity on 5α-reductase in vitro; format: biochemical; details: [4-14C]testosterone 5 μM, NADPH 5×10^-3 M, pH 7.4, 37° C., 60 mins; read-out: IC50, inhibitory activity on 5α-reductase (Table VII)
Protocol: Inhibitory activity of the compounds of the present invention on 5α-reductase was measured by the following method.
Inhibitory activity of the compounds of the present invention on 5α-reductase (IC50) in vitro was measured by the following method.
Compounds tested were incubated with radioactive [4-^14 C]testosterone (5 μM) and NADPH (5×10^-3 M) in the medium containing 5α-reductase, 0.09M Hepes (pH 7.4) and 0.22M sucrose at 37° C. for 60 mins. The reaction was stopped by adding solution of chloroform-methanol (1:2). The reaction mixture was centrifuged and the supernatant was separated by thin layer chromatography on silica gel using chloroform-methanol-acetic acid (99.2:0.6:0.2) as a developing solvent. Radioactivity of formed 5α-dihydrotestosterone was measured by TLC scanner. The values of IC50 were determined by the inhibition percents of 5α-reductase activity measured by the above procedure (see Endocrinal, Japon., 18, 179 (1971).).

IC50 [µM] | Structure (SMILES)
4 | CCCCCc1ccc(C(C)=CC(=O)Nc2ccccc2SCCCC(=O)O)cc1 [4(206)]
5 | CCCCCc1ccc(C=CC(=O)Nc2ccccc2OCCCC(=O)O)cc1 [6(1)]

tested on: not listed separately; experiment: Acute toxicity (LD50), intravenous, male mice; details: mouse, in vivo, intravenous administration

Structure (SMILES) | LD50 [mg/kg]
O=C(Nc1cccc2c1OC(c1nnn[nH]1)CO2)c1ccc(OCCCCc2ccccc2)cc1 (centres unmarked) [1(76)] | > 1000
C=CCCC/C=C/COc1ccc(C(=O)Nc2cccc3c(=O)cc(-c4nn[nH]n4)oc23)cc1 [1(212)] | > 1000
O=C(Nc1cccc2c(=O)cc(-c3nnn[nH]3)oc12)c1ccc(OCCCCc2ccccc2)cc1 [1(230)] | > 1000
C=CCCC/C=C/COc1ccc(C(=O)Nc2cc(C)cc3c(=O)cc(-c4nn[nH]n4)oc23)cc1 [1(247)] | > 1000

From patent US5446058A, “(Fused) benz(thio)amides” (Ono Pharmaceutical Co., Ltd., priority 1984, dated 1995)
